Where two headings read alike, the source gives them in different places.
Columns and labels:
RPMI-7951 human melanoma = test: Neutral Red Assay, cell viability, RPMI-7951; conditions: for Cell Viability: RPMI-7951, DMSO = 100; for viability at 5 µM / viability at 20 µM: Homo sapiens
[1] = test system: Vascular Endothelial Growth Factor (VEGF) production by human melanoma cell line RPMI-7951; test: VEGF ELISA, RPMI-7951; conditions: for VEGF / VEGF ELISA: RPMI-7951; for activity at 5 µM / activity at 20 µM: Homo sapiens, RPMI-7951, 72 h, read-out: VEGF; for VEGF ELISA: DMSO control 3713
Experimental: RPMI-795 1, MDA-MB-231 and MDA-MB-435 cell lines were cultured in MEM-alpha medium (GIBCO-BRL, Long Island, N.Y.) containing 10% fetal bovine serum (RPMI-7951, MDA-MB-231) or 5% FBS (MDA-MB-435) at 37° C. and under 5% CO2/95% air. […] The cells were cultured in 48 well plates in all of the experiments described.
A VEGF enzyme-linked immunosorbent assay (ELISA) was utilized to determine the effect of the compounds of the present invention on VEGF production of a variety of human cancer cell lines. For the VEGF assay, cells were plated at a concentration of 80,000 cells/well and cultured overnight. Compounds or vehicle (DMSO 0.1%) were then added and the plates were incubated for 72 hours. Supernatant was then collected from each well and frozen in a −80° C. freezer until needed. Cell viability was determined by Neutral Red Assay. VEGF ELISA Kit (R & D, Minneapolis, Minn.) was used to determine the amount of VEGF in the culture supernatants. The ELISA was carried out according to the manufacturer's procedure.

[2] = test system: Vascular Endothelial Growth Factor (VEGF) production by human prostate cancer cell line DU-145; test: VEGF ELISA, DU-145; assay type: cell-based; conditions: for VEGF (% of DMSO): DMSO = 100%
[3] = test system: Vascular Endothelial Growth Factor (VEGF) production by human prostate cancer cell line PC-3; test: VEGF ELISA, PC-3; assay type: cell-based; conditions: for VEGF (% of DMSO): DMSO = 100%
[4] = test system: Tissue Factor (TF) production by human melanoma cell line RPMI-7951; test: TF ELISA, RPMI-7951; assay type: cell-based
Experimental: IMUBIND Tissue Factor ELISA Kit (American Diagnostica Inc, Greenwich, Conn.) was used to determine TF concentration in each sample. The ELISA was carried out according to manufacturer's procedure.

[5] = 20 μM, mean of triplicate and S.D., DMSO 18760 ± 2633
[6] = Table 4, 20 μM, mean of triplicate and S.D.
[7] = 20 μM, mean of triplicate and S.D., DMSO 2103 ± 100
[8] = Table 5, 20 μM, DMSO control 7054
[9] = 5 μM, DMSO control 4197 (EF-25: 1045)
[10] = RPMI-7951, 72 h, read-out: Neutral Red Uptake, %
[11] = RPMI-7951, read-out: Cell Viability

## [O-][S+](/C=C\c1ccccc1)/C=C/c1ccccc1 (racemic) [EF14, E,Z3,5-Bisbenzylidenesulfoxide]
RPMI-7951 human melanoma; 20 μM
  Cell Viability: 86%
[1]; 20 μM, DMSO = 100
  VEGF: 36%

## COc1ccc(CCC(=O)CCc2ccc(OC)c(OC)c2)cc1OC [A]
[2]; 20 μM
  VEGF (% of DMSO): (142%)
[2]; [5]
  VEGF: 26565 ± 9818 pg/mL
[2]; Table 4, 20 μM, DMSO = 100
  VEGF: 142%
[2]; [6]
  VEGF: 26565 ± 9818 pg/mL
[3]; 20 μM
  VEGF (% of DMSO): (82%)
[3]; [7]
  VEGF: 1729 ± 59 pg/mL
[3]; Table 4, 20 μM, DMSO = 100
  VEGF: 82%
[3]; [6]
  VEGF: 1729 ± 59 pg/mL

## COc1ccc(CCC(=O)CCc2ccc(OC)cc2)cc1 [BA-1]
[4]; 20 μM, DMSO = 100
  TF: 95%
[4]; [8]
  TF: 6669 pg/mL

## COc1ccc(C=CC(=O)c2ccccc2)cc1OC [BA-3]
RPMI-7951 human melanoma; 5 μM
  Cell Viability: 93%
RPMI-7951 human melanoma; 20 μM
  Cell Viability: 102%
[4]; 20 μM, DMSO = 100
  TF: 30%
[4]; [8]
  TF: 2088 pg/mL
[1]; 5 μM, DMSO = 100
  VEGF: 116%
[1]; [9]
  VEGF: 4860 pg/mL
[1]; 20 μM, DMSO = 100
  VEGF: 48%
[1]; 20 μM, DMSO control 4197
  VEGF: 2035 pg/mL

## COc1ccc(C=CC(=O)C=Cc2ccc(OC)cc2)cc1 [BA-4]
RPMI-7951 human melanoma; 5 μM
  Cell Viability: 90%
RPMI-7951 human melanoma; 20 μM
  Cell Viability: 84%
[4]; 5 μM, DMSO = 100
  TF: 100%
[4]; 20 μM, DMSO = 100
  TF: 30%
[4]; Table 5, 5 μM, DMSO control 7054
  TF: 7043 pg/mL
[4]; [8]
  TF: 2120 pg/mL
[1]; 5 μM, DMSO = 100
  VEGF: 112%
[1]; [9]
  VEGF: 4708 pg/mL
[1]; 20 μM, DMSO = 100
  VEGF: 80%
[1]; 20 μM, DMSO control 4197
  VEGF: 3348 pg/mL

## COc1ccccc1C1CC(=O)CC(c2ccccc2OC)O1 (stereo not drawn) [BA-8]
[2]; 20 μM
  VEGF (% of DMSO): (218%)
[2]; [5]
  VEGF: 40883 ± 6639 pg/mL
[2]; Table 4, 20 μM, DMSO = 100
  VEGF: 218%
[2]; [6]
  VEGF: 40883 ± 6639 pg/mL
[3]; 20 μM
  VEGF (% of DMSO): (78%)
[3]; [7]
  VEGF: 1648 ± 229 pg/mL
[3]; Table 4, 20 μM, DMSO = 100
  VEGF: 78%
[3]; [6]
  VEGF: 1648 ± 229 pg/mL

## COc1ccc(CCC(O)CCc2ccc(OC)c(OC)c2)cc1OC [B]
[2]; 20 μM
  VEGF (% of DMSO): (82%)
[2]; [5]
  VEGF: 15321 ± 5607 pg/mL
[2]; Table 4, 20 μM, DMSO = 100
  VEGF: 82%
[2]; [6]
  VEGF: 15321 ± 5607 pg/mL
[3]; 20 μM
  VEGF (% of DMSO): (99%)
[3]; [7]
  VEGF: 2168 ± 279 pg/mL
[3]; Table 4, 20 μM, DMSO = 100
  VEGF: 103%
[3]; [6]
  VEGF: 2168 ± 279 pg/mL

## COc1ccc(CC2CCCC(Cc3ccc(OC)c(OC)c3)C2=O)cc1OC (stereo not drawn) [C]
[2]; 20 μM
  VEGF (% of DMSO): (110%)
[2]; [5]
  VEGF: 20559 ± 9224 pg/mL
[2]; Table 4, 20 μM, DMSO = 100
  VEGF: 110%
[2]; [6]
  VEGF: 20559 ± 9224 pg/mL
[3]; 20 μM
  VEGF (% of DMSO): (82%)
[3]; [7]
  VEGF: 1734 ± 397 pg/mL
[3]; Table 4, 20 μM, DMSO = 100
  VEGF: 82%
[3]; [6]
  VEGF: 1734 ± 397 pg/mL

## COc1cc(CC2CCCC(Cc3ccc(O)c(OC)c3)C2O)ccc1O (stereo not drawn) [Compound A231L]
RPMI-7951 human melanoma; 20 μM
  Cell Viability: 77%
[2]; Table 4, 20 μM, DMSO = 100
  VEGF: 149%
[2]; [6]
  VEGF: 27927 ± 4466 pg/mL
[3]; Table 4, 20 μM, DMSO = 100
  VEGF: 80%
[3]; [6]
  VEGF: 1687 ± 250 pg/mL
[1]; 20 μM, DMSO = 100
  VEGF: 25%

## COc1cc(CCC(=O)CC(=O)CCc2ccc(O)c(OC)c2)ccc1O [Compound A232]
RPMI-7951 human melanoma; 20 μM
  Cell Viability: 78%
[2]; Table 4, 20 μM, DMSO = 100
  VEGF: 135%
[2]; [6]
  VEGF: 25308 ± 4722 pg/mL
[3]; Table 4, 20 μM, DMSO = 100
  VEGF: 93%
[3]; [6]
  VEGF: 1955 ± 437 pg/mL
[1]; 20 μM, DMSO = 100
  VEGF: 40%

## COc1ccc(C=CC(O)CCc2ccc(OC)c(OC)c2)cc1OC (stereo not drawn) [Compound A239]
RPMI-7951 human melanoma; 20 μM
  Cell Viability: 86%
[2]; Table 4, 20 μM, DMSO = 100
  VEGF: 145%
[2]; [6]
  VEGF: 27229 ± 2148 pg/mL
[3]; Table 4, 20 μM, DMSO = 100
  VEGF: 80%
[3]; [6]
  VEGF: 1678 ± 293 pg/mL
[1]; 20 μM, DMSO = 100
  VEGF: 40%

## O=C(NCc1ccccc1)NCc1ccccc1 [Compound A271a]
[2]; 20 μM
  VEGF (% of DMSO): (129%)
[2]; [5]
  VEGF: 24190 ± 2160 pg/mL
[2]; Table 4, 20 μM, DMSO = 100
  VEGF: 129%
[2]; [6]
  VEGF: 24190 ± 2160 pg/mL
[3]; 20 μM
  VEGF (% of DMSO): (57%)
[3]; [7]
  VEGF: 1196 ± 438 pg/mL
[3]; Table 4, 20 μM, DMSO = 100
  VEGF: 57%
[3]; [6]
  VEGF: 1196 ± 438 pg/mL

## O=S(=O)(NCc1ccccc1)NCc1ccccc1 [Compound A272]
[2]; Table 4, 20 μM, DMSO = 100
  VEGF: 129%
[2]; [6]
  VEGF: 24155 ± 4635 pg/mL
[3]; Table 4, 20 μM, DMSO = 100
  VEGF: 89%
[3]; [6]
  VEGF: 1864 ± 339 pg/mL

## COc1ccc(CNS(=O)(=O)NCc2ccc(OC)c(OC)c2)cc1OC [Compound A277a]
[2]; Table 4, 20 μM, DMSO = 100
  VEGF: 146%
[2]; [6]
  VEGF: 27403 ± 3143 pg/mL
[3]; Table 4, 20 μM, DMSO = 100
  VEGF: 95%
[3]; [6]
  VEGF: 2007 ± 30 pg/mL

## COc1ccc(CNC(=O)NCc2ccc(OC)c(OC)c2)cc1OC [Compound A277b]
[2]; Table 4, 20 μM, DMSO = 100
  VEGF: 145%
[2]; [6]
  VEGF: 27124 ± 1346 pg/mL
[3]; Table 4, 20 μM, DMSO = 100
  VEGF: 89%
[3]; [6]
  VEGF: 1868 ± 38 pg/mL

## CN(C)/N=N/c1[nH]cnc1C(N)=O [Decabazine, Decarbazine, reference compound]
RPMI-7951 human melanoma; [10]
  viability at 5 µM: 100%
  viability at 20 µM: 100%
RPMI-7951 human melanoma; [11]
  viability at 5 µM: 91%
  viability at 20 µM: 99%
[1]
  activity at 5 µM: 28%
  activity at 20 µM: 31%
[1]; 5 μM
  VEGF ELISA: 1136 pg/ml/well
[1]; [9]
  VEGF: 1171 pg/mL
[1]; 20 μM
  VEGF ELISA: 1531 pg/ml/well
[1]; 20 μM, DMSO control 4197
  VEGF: 1293 pg/mL

## CON=C(/C=C/c1ccccc1O)/C=C/c1ccccc1O [EF6, N-(Methoxy)-1,5-bis(2-hydroxyphenyl)penta-1,4-dien-3-imine]
RPMI-7951 human melanoma; [11]
  viability at 20 µM: 72%
[1]
  activity at 20 µM: 45%

## O=C(C=Cc1ccccc1F)C=Cc1ccccc1F [EF8, 1,5-Bis(2-fluorophenyl)penta-1,4-dien-3-one]
RPMI-7951 human melanoma; [10]
  viability at 5 µM: 97%
  viability at 20 µM: 8%
RPMI-7951 human melanoma; [11]
  viability at 5 µM: 94%
  viability at 20 µM: 54%
[1]
  activity at 5 µM: 54%
  activity at 20 µM: 1%
[1]; 5 μM
  VEGF ELISA: 2208 pg/ml/well
[1]; [9]
  VEGF: 2276 pg/mL
[1]; 20 μM
  VEGF ELISA: 319 pg/ml/well
[1]; 20 μM, DMSO control 4197
  VEGF: 35 pg/mL

## O=C(C=Cc1ccc(F)c(F)c1)C=Cc1ccc(F)c(F)c1 [EF10, 1,5-Bis(3,4-difluorophenyl)penta-1,4-dien-3-one]
RPMI-7951 human melanoma; [10]
  viability at 20 µM: 8%
RPMI-7951 human melanoma; [11]
  viability at 20 µM: 54%
[1]
  activity at 20 µM: 5%
[1]; 20 μM
  VEGF ELISA: 257 pg/ml/well
[1]; 20 μM, DMSO control 4197
  VEGF: 217 pg/mL

## O=S(=O)(/C=C/c1ccccc1)/C=C/c1ccccc1 [EF12, 3,5-Bisbenzylidenesulfone]
RPMI-7951 human melanoma; 20 μM
  Cell Viability: 92%
[1]; 20 μM, DMSO = 100
  VEGF: 70%

## [O-][S+](/C=C/c1ccccc1)/C=C/c1ccccc1 [EF13, E,E-3,5-Bisbenzylidenesulfoxide]
RPMI-7951 human melanoma; 20 μM
  Cell Viability: 92%
[1]; 20 μM, DMSO = 100
  VEGF: 53%

## Oc1ccccc1CCC(O)CCc1ccccc1O [EF32, 1,5-Bis(2-hydroxyphenyl)-pentan-3-ol]
[4]; 20 μM, DMSO = 100
  TF: 123%
[4]; [8]
  TF: 8654 pg/mL

## O=C1CCC(N2C(=O)c3ccccc3C2=O)C(=O)N1 (stereo not drawn) [Thalidomide, reference compound]
RPMI-7951 human melanoma; [10]
  viability at 5 µM: 100%
  viability at 20 µM: 100%
RPMI-7951 human melanoma; [11]
  viability at 5 µM: 105%
  viability at 20 µM: 97%
[1]
  activity at 5 µM: 44%
  activity at 20 µM: 57%
[1]; 5 μM
  VEGF ELISA: 1810 pg/ml/well
[1]; [9]
  VEGF: 1865 pg/mL
[1]; 20 μM
  VEGF ELISA: 2827 pg/ml/well
[1]; 20 μM, DMSO control 4197
  VEGF: 2387 pg/mL

From patent US7371766B2, “Curcumin analogs with anti-tumor and anti-angiogenic properties” (Emory University, priority 1999, dated 2008)
